Measured values from patent publication US8877820B2, “Compositions comprising a retinoid and an NFkB-inhibitor and their methods of use” (Johnson & Johnson Consumer Companies, Inc., priority 2010, dated 2014).

Test system: NF-κB gene reporter in FB293 cells
Test: NFκB-INHIBITION TEST (luciferase gene reporter, TNFα-stimulated FB293 cells)
Format: cell-based, human
Settings: for Percent NF-kB Inhibition: FB293 cells, TNFα 100 ng/ml, 24 h; for NF-κB inhibition (in words): summary of Table 2
Description: The NFκB-INHIBITION TEST is conducted in the following manner. FB293 cells, a stable transfected human epithelial cell line containing the gene reporter for NF-κB are used. They may be obtained from, e.g., Panomics (Fremont, Calif.). FB293 are plated at a density of 5×10^4 cells/mL in a suitable medium, e.g., Dulbecco's modified Eagle's medium (DMEM) supplemented with 10% fetal bovine serum (Invitrogen, San Diego, Calif.). The FB293 cells are stimulated with 100 ng/mL of Tumor Necrosis Factor-α (TNFα, available from Sigma-Aldrich of St Louis, Mo.) in the presence of the test sample. Separately, a control sample is tested wherein no test sample is applied. Following a 24-hour incubation at 37° C. with 5% CO2, cells are lysed with 40 μl of reporter lysis buffer (Promega, Madison, Wis.). A 20-μl aliquot of the lysate is assayed using a luciferase assay kit (Promega) and counted for 10 s in a Lmax luminometer (Molecular Devices, Sunnyvale, Calif.) with the data represented as the relative light unit/second. Percent NFκB Inhibition of the test sample is calculated as: NFκB Inhibition=[1−(Lsample/Lcontrol)]*100 where Lsample is the luminescence of the sample and Lcontrol is the luminescence of the control.
The NFκB-INHIBITION TEST described above was performed on test samples of Bay 11-7082 (Sigma-Aldrich, St. Louis, Mo.), Tetrahydrocurcuminoids CG (Sabinsa Corporation, Piscataway, N.J.), as well as various concentrations of 4-hexylresorcinol. The results are shown in Table 2, in which NF-κB Gene Reporter Activation (Luminescence, L) is reported for the test samples and a control sample. Percent NF-κB Inhibition is also reported.

| Structure (SMILES) | Percent NF-kB Inhibition (25 μM) [%] | NF-κB inhibition (in words) | Percent NF-kB Inhibition (1 μg/ml) [%] | Percent NF-kB Inhibition (5 μg/ml) [%] | Percent NF-kB Inhibition (10 μg/ml) [%] | Percent NF-kB Inhibition (50 μg/ml) [%] |
| --- | --- | --- | --- | --- | --- | --- |
| Cc1ccc(S(=O)(=O)/C=C/C#N)cc1 [Bay 11-7082, (E)-3-(4-methylphenylsulfonyl)-2-propenenitrile] | 89.5 | strong NF-κB inhibition | – | – | – | – |
| CCCCCCc1ccc(O)cc1O [4-Hexylresorcinol, 4-Hexyl resorcinol] | – | strong NF-κB inhibition | 1.9 | 50.9 | 72.9 | 91.4 |
